Results as given in patent publication US9169241B2, “Quinolinyloxyphenylsulfonamides” (Max-Planck-Gesellschaft Zur Forderung der Wissenschaften …, priority 2009, dated 2015).
Like-named read-outs stand apart in the source and are kept apart here.

Tests used:
Assay type in all cases: cell-based
viable cells in culture = assay: Cell viability assay at 10 μM (CellTiter-Glo, Table VII); details: compound 10 μM, 72 h;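 also: graded A 0-20%; B 21-40%; C 41-60%; D over 60% viable cells relative to DMSO control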
Method in brief: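 Cells were seeded at 1000 cells/well in 96-well plates in 100 μl culture medium and incubated for 72 h with 10 μM compound or a DMSO control. ATP content, which reflects metabolically active and therefore viable cells, was then determined by CellTiter-Glo luminescence (Promega) per the manufacturer's instructions and expressed relative to the DMSO control.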

SF763 = assay: Cell vitality assay (ATP assay, CellTiter-Glo); details: SF763, 72 h; Table IIa; read-out: IC50 ATP-Assay after 72 h SF763
Method in brief: (§1)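 Viability is estimated from cellular ATP after 72 h of compound treatment at 1000 cells per well. The dilution series runs 12.5, 6.25, 3.125, 1.56, 0.78, 0.39 and 0.195 μM. Half-maximal values are expressed against DMSO-treated wells.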

U138 = assay: Cell vitality assay (ATP assay, CellTiter-Glo); details: U138, 72 h; Table IIa; read-out: IC50 ATP-Assay after 72 h U138
Method in brief: as §1

MDA-MB231 = assay: Cell vitality assay (ATP assay, CellTiter-Glo); details: Homo sapiens, MDA-MB-231; MDA-MB231, 72 h; Table IIa; read-out: IC50 ATP-Assay after 72 h MDA-MB231
Method in brief: as §1

C8161 = assay: Cell vitality assay (ATP assay, CellTiter-Glo); details: Homo sapiens; C8161, 72 h; Table IIa; read-out: IC50 ATP-Assay after 72 h C8161
Method in brief: as §1

tumor cell = assay: Matrigel outgrowth assay/branching assay (Table Va)
Method in brief: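 Cells (5000/well) were seeded onto polymerized 3 mg/ml Matrigel with compound at 3.125, 1.56 or 0.78 μM versus DMSO. Branching was imaged by inverted microscopy (5× objective) at 48, 72 and 96 h. Only concentrations giving total branching inhibition scored positive.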

[1] = Homo sapiens, HCT-116, HCT116 def, read-out: percentage (%) of viable cells HCT 116def
[2] = Homo sapiens, HCT-116, HCT116 wt, read-out: percentage (%) of viable cells HCT 116wt
[3] = Homo sapiens, HT-29, HT29, read-out: percentage (%) of viable cells HT29
[4] = Homo sapiens, NCI-H358, H358, read-out: percentage (%) of viable cells H358
[5] = Homo sapiens, NCI-H1650, H1650, read-out: percentage (%) of viable cells H1650
[6] = Homo sapiens, NCI-H1666, H1666, read-out: percentage (%) of viable cells H1666
[7] = Homo sapiens, NCI-H1975, H1975, read-out: percentage (%) of viable cells H1975
[8] = Homo sapiens, NCI-H1993, H1993, read-out: percentage (%) of viable cells H1993
[9] = Homo sapiens, A549, read-out: percentage (%) of viable cells A549
[10] = Homo sapiens, HCC827, read-out: percentage (%) of viable cells HCC827
[11] = Homo sapiens, SW480, read-out: percentage (%) of viable cells SW480
[12] = RKO, read-out: percentage (%) of viable cells RKO
[13] = Homo sapiens, C8161 cells, read-out: Total branching inhibition in Matrigel C8161
[14] = Homo sapiens, Hs-578T, Hs578T cells, read-out: Total branching inhibition in Matrigel Hs578T
[15] = U118 cells, read-out: Total branching inhibition in Matrigel U118
[16] = U138 cells, read-out: Total branching inhibition in Matrigel U138

Compound	viability at 10 µM (viable cells in culture; [1])	viability at 10 µM (viable cells in culture; [2])	viability at 10 µM (viable cells in culture; [3])	viability at 10 µM (viable cells in culture; [4])	viability at 10 µM (viable cells in culture; [5])	viability at 10 µM (viable cells in culture; [6])	viability at 10 µM (viable cells in culture; [7])	viability at 10 µM (viable cells in culture; [8])	viability at 10 µM (viable cells in culture; [9])	viability at 10 µM (viable cells in culture; [10])	viability at 10 µM (viable cells in culture; [11])	viability at 10 µM (viable cells in culture; [12])	IC50 (SF763)	IC50 (U138)	IC50 (MDA-MB231)	IC50 (C8161)	IC50 (tumor cell; [13])	IC50 (tumor cell; [14])	IC50 (tumor cell; [15])	IC50 (tumor cell; [16])
COc1cc2c(Oc3ccc(NS(=O)(=O)c4ccccc4Cl)cc3F)ccnc2cc1OCCCN1CCN(C)CC1 [Example 29, 2-Chloro-N-(3-fluoro-4-{6-methoxy-7-[3-(4-methyl-piperazin-1-yl)-propoxy]-quinolin-4-yloxy}-phenyl)-benzenesulfonamide]	0 to 20%	0 to 20%	0 to 20%	21 to 40%	21 to 40%	41 to 60%	0 to 20%	0 to 20%	41 to 60%	21 to 40%	0 to 20%	0 to 20%	12.5 to 50 µM	≤ 12.5 µM	≤ 12.5 µM	≤ 12.5 µM	≤ 5 µM	≤ 5 µM	≤ 5 µM	5 to 50 µM
COc1cc2c(Oc3ccc(NS(=O)(=O)c4c(Cl)cccc4Cl)cc3F)ccnc2cc1OCCCN1CCN(C)CC1 [Example 32, 2,6-Dichloro-N-(3-fluoro-4-{6-methoxy-7-[3-(4-methyl-piperazin-1-yl)-propoxy]-quinolin-4-yloxy}-phenyl)-benzenesulfonamide]	21 to 40%	0 to 20%	0 to 20%	0 to 20%	21 to 40%	41 to 60%	21 to 40%	0 to 20%	41 to 60%	41 to 60%	21 to 40%	21 to 40%	≤ 12.5 µM	≤ 12.5 µM	≤ 12.5 µM	≤ 12.5 µM	≤ 5 µM	≤ 5 µM	≤ 5 µM	5 to 50 µM
COc1cc2c(Oc3ccc(NS(=O)(=O)c4ccccc4OC)cc3F)ccnc2cc1OCCCN1CCN(C)CC1 [Example 33, N-(3-Fluoro-4-{6-methoxy-7-[3-(4-methyl-piperazin-1-yl)-propoxy]-quinolin-4-yloxy}-phenyl)-2-methoxy-benzenesulfonamide]	21 to 40%	0 to 20%	0 to 20%	21 to 40%	> 60%	21 to 40%	21 to 40%	0 to 20%	41 to 60%	21 to 40%	0 to 20%	0 to 20%	≤ 12.5 µM	≤ 12.5 µM	≤ 12.5 µM	≤ 12.5 µM	≤ 5 µM	≤ 5 µM	≤ 5 µM	5 to 50 µM
COc1cc2c(Oc3ccc(NS(=O)(=O)c4cccc(C#N)c4)cc3F)ccnc2cc1OCCCN1CCCC(C)C1 (stereo not drawn) [Example 41, 3-Cyano-N-(3-fluoro-4-{6-methoxy-7-[3-(3-methyl-piperidin-1-yl)-propoxy]-quinolin-4-yloxy}-phenyl)-benzenesulfonamide]	0 to 20%	41 to 60%	21 to 40%	0 to 20%	41 to 60%	21 to 40%	0 to 20%	21 to 40%	21 to 40%	41 to 60%	0 to 20%	0 to 20%	≤ 12.5 µM	≤ 12.5 µM	≤ 12.5 µM	≤ 12.5 µM	≤ 5 µM	≤ 5 µM	≤ 5 µM	5 to 50 µM
COc1cc2c(Oc3ccc(NS(=O)(=O)c4cccc(C)c4)cc3F)ccnc2cc1OCCCN1CCCC(C)C1 (stereo not drawn) [Example 70, N-(3-Fluoro-4-{6-methoxy-7-[3-(3-methyl-piperidin-1-yl)-propoxy]-quinolin-4-yloxy}-phenyl)-3-methyl-benzenesulfonamide]	21 to 40%	41 to 60%	21 to 40%	21 to 40%	41 to 60%	21 to 40%	0 to 20%	0 to 20%	21 to 40%	21 to 40%	21 to 40%	0 to 20%	12.5 to 50 µM	≤ 12.5 µM	12.5 to 50 µM	12.5 to 50 µM	≤ 5 µM	≤ 5 µM	≤ 5 µM	≤ 5 µM
COc1cc2c(Oc3ccc(NS(=O)(=O)c4ccc(F)c(C#N)c4)cc3F)ccnc2cc1OCCCN1CCCC(C)C1 (stereo not drawn) [Example 72, 3-Cyano-4-fluoro-N-(3-fluoro-4-{6-methoxy-7-[3-(3-methyl-piperidin-1-yl)-propoxy]-quinolin-4-yloxy}-phenyl)-benzenesulfonamide]	41 to 60%	21 to 40%	0 to 20%	21 to 40%	41 to 60%	21 to 40%	41 to 60%	0 to 20%	> 60%	41 to 60%	0 to 20%	0 to 20%	12.5 to 50 µM	12.5 to 50 µM	12.5 to 50 µM	12.5 to 50 µM	≤ 5 µM	≤ 5 µM	≤ 5 µM	≤ 5 µM
COc1cc2c(Oc3c(Cl)cc(NS(=O)(=O)c4c(F)cccc4F)cc3Cl)ccnc2cc1OCCCN1CCN(C)CC1 [Example 88, N-(3,5-Dichloro-4-{6-methoxy-7-[3-(4-methyl-piperazin-1-yl)-propoxy]-quinolin-4-yloxy}-phenyl)-2,6-difluoro-benzenesulfonamide]	0 to 20%	41 to 60%	21 to 40%	0 to 20%	41 to 60%	21 to 40%	0 to 20%	0 to 20%	41 to 60%	0 to 20%	21 to 40%	41 to 60%	12.5 to 50 µM	12.5 to 50 µM	≤ 12.5 µM	≤ 12.5 µM	≤ 5 µM	5 to 50 µM	5 to 50 µM	5 to 50 µM
COc1cc2c(Oc3ccc(NS(=O)(=O)c4ccccc4C(F)(F)F)cc3F)ccnc2cc1OCC(=O)N(C)C [Example 93, 2-{4-[2-Fluoro-4-(2-trifluoromethyl-benzenesulfonylamino)-phenoxy]-6-methoxy-quinolin-7-yloxy}-N,N-dimethyl-acetamide]	21 to 40%	> 60%	0 to 20%	0 to 20%	21 to 40%	21 to 40%	0 to 20%	21 to 40%	> 60%	21 to 40%	0 to 20%	0 to 20%	12.5 to 50 µM	12.5 to 50 µM	12.5 to 50 µM	≤ 12.5 µM	≤ 5 µM	≤ 5 µM	≤ 5 µM	5 to 50 µM
COc1cc2c(Oc3ccc(NS(=O)(=O)c4ccccc4C(F)(F)F)cc3F)ccnc2cc1OCCCNC1CCOCC1 [Example 95, N-(3-Fluoro-4-{6-methoxy-7-[3-(tetrahydro-pyran-4-ylamino)-propoxy]-quinolin-4-yloxy}-phenyl)-2-trifluoromethyl-benzenesulfonamide]	21 to 40%	21 to 40%	0 to 20%	0 to 20%	21 to 40%	21 to 40%	0 to 20%	0 to 20%	> 60%	21 to 40%	0 to 20%	0 to 20%	≤ 12.5 µM	≤ 12.5 µM	≤ 12.5 µM	12.5 to 50 µM	≤ 5 µM	≤ 5 µM	5 to 50 µM	5 to 50 µM
